Tests used:
Assay in all cases: relative viability (nuclei count vs DMSO), 5 days (fraction); higher = more cells survive
NCI-H1666 = tested on: NCI-H1666
How it was run: (§1)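 After 5 days of treatment, lung cancer cells in 1536-well plates were fixed and stained in a single step (final 0.05% Triton X-100, 1% formaldehyde, 1 ug/ml Hoechst) and their nuclei counted on 4× images. Treatment had been applied by pin tool the day after seeding as one drug alone or as a fixed anchor-drug dose with five library-drug doses (not always all listed) in √10 steps. Relative viability is the nuclei count of treated wells divided by that of vehicle wells, and values are medians of duplicate plates.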

LCLC-97TM1 = tested on: LCLC-97TM1
How it was run: as §1

CAL-12T = tested on: CAL-12T
How it was run: as §1

NCI-H838 = tested on: NCI-H838
How it was run: as §1

NCI-H1651 = tested on: NCI-H1651
How it was run: as §1

NCI-H1395 = tested on: NCI-H1395
How it was run: as §1

NCI-H1355 = tested on: NCI-H1355
How it was run: as §1

NCI-H2085 = tested on: NCI-H2085
How it was run: as §1

NCI-H2087 = tested on: NCI-H2087
How it was run: as §1

NCI-H322M = tested on: NCI-H322M
How it was run: as §1

NCI-H358 = tested on: NCI-H358
How it was run: as §1

NCI-H1915 = tested on: NCI-H1915
How it was run: as §1

SK-MES-1 = tested on: SK-MES-1
How it was run: as §1

UMC-11 = tested on: UMC-11
How it was run: as §1

NCI-H661 = tested on: NCI-H661
How it was run: as §1

LK-2 = tested on: LK-2
How it was run: as §1

PC-14 = tested on: PC-14
How it was run: as §1

NCI-H2228 = tested on: NCI-H2228
How it was run: as §1

H3255 = tested on: H3255
How it was run: as §1

A-427 = tested on: A-427
How it was run: as §1

ABC-1 = tested on: ABC-1
How it was run: as §1

PC-3 [JPC-3] = tested on: PC-3 [JPC-3]
How it was run: as §1

NCI-H1792 = tested on: NCI-H1792
How it was run: as §1

## O=c1[nH]c2ccccc2n1C1CCN(CCCC(c2ccc(F)cc2)c2ccc(F)cc2)CC1 [Pimozide] + CCNC(=O)c1noc(-c2cc(C(C)C)c(O)cc2O)c1-c1ccc(CN2CCOCC2)cc1 [Luminespib] (partner 0.01 µM)
NCI-H1666; first compound 0.08 µM
  relative viability: 0.922
NCI-H1666; first compound 0.253 µM
  relative viability: 1.03
NCI-H1666; first compound 0.8 µM
  relative viability: 0.979
NCI-H1666; first compound 2.53 µM
  relative viability: 0.942
NCI-H1666; first compound 8 µM
  relative viability: 0.932
LCLC-97TM1; first compound 0.08 µM
  relative viability: 0.89
LCLC-97TM1; first compound 0.253 µM
  relative viability: 0.689
LCLC-97TM1; first compound 0.8 µM
  relative viability: 0.62
LCLC-97TM1; first compound 2.53 µM
  relative viability: 0.632
LCLC-97TM1; first compound 8 µM
  relative viability: 0.679
CAL-12T; first compound 0.08 µM
  relative viability: 0.305
CAL-12T; first compound 0.253 µM
  relative viability: 0.408
CAL-12T; first compound 0.8 µM
  relative viability: 0.186
CAL-12T; first compound 2.53 µM
  relative viability: 0.514
CAL-12T; first compound 8 µM
  relative viability: 0.168
NCI-H838; first compound 0.08 µM
  relative viability: 0.263
NCI-H838; first compound 0.253 µM
  relative viability: 0.379
NCI-H838; first compound 0.8 µM
  relative viability: 0.309
NCI-H838; first compound 2.53 µM
  relative viability: 0.296
NCI-H838; first compound 8 µM
  relative viability: 0.244
NCI-H1651; first compound 0.08 µM
  relative viability: 0.91
NCI-H1651; first compound 0.253 µM
  relative viability: 0.756
NCI-H1651; first compound 0.8 µM
  relative viability: 0.696
NCI-H1651; first compound 2.53 µM
  relative viability: 0.867
NCI-H1651; first compound 8 µM
  relative viability: 0.807
NCI-H1395; first compound 0.08 µM
  relative viability: 0.846
NCI-H1395; first compound 0.253 µM
  relative viability: 0.595
NCI-H1395; first compound 0.8 µM
  relative viability: 0.704
NCI-H1395; first compound 2.53 µM
  relative viability: 0.927
NCI-H1395; first compound 8 µM
  relative viability: 0.683
NCI-H1355; first compound 0.08 µM
  relative viability: 0.728
NCI-H1355; first compound 0.253 µM
  relative viability: 0.63
NCI-H1355; first compound 0.8 µM
  relative viability: 0.633
NCI-H1355; first compound 2.53 µM
  relative viability: 0.557
NCI-H1355; first compound 8 µM
  relative viability: 0.642
NCI-H2085; first compound 0.08 µM
  relative viability: 0.515
NCI-H2085; first compound 0.253 µM
  relative viability: 0.485
NCI-H2085; first compound 0.8 µM
  relative viability: 0.4
NCI-H2085; first compound 2.53 µM
  relative viability: 0.496
NCI-H2085; first compound 8 µM
  relative viability: 0.322
NCI-H2087; first compound 0.08 µM
  relative viability: 0.192
NCI-H2087; first compound 0.253 µM
  relative viability: 0.205
NCI-H2087; first compound 2.53 µM
  relative viability: 0.171
NCI-H2087; first compound 8 µM
  relative viability: 0.228
NCI-H322M; first compound 0.253 µM
  relative viability: 0.899
NCI-H322M; first compound 0.8 µM
  relative viability: 0.858
NCI-H322M; first compound 2.53 µM
  relative viability: 0.942
NCI-H322M; first compound 8 µM
  relative viability: 0.743
NCI-H358; first compound 0.08 µM
  relative viability: 0.317
NCI-H358; first compound 0.253 µM
  relative viability: 0.382
NCI-H358; first compound 0.8 µM
  relative viability: 0.333
NCI-H358; first compound 2.53 µM
  relative viability: 0.399
NCI-H358; first compound 8 µM
  relative viability: 0.206
NCI-H1915; first compound 0.08 µM
  relative viability: 0.807
NCI-H1915; first compound 0.253 µM
  relative viability: 0.8
NCI-H1915; first compound 0.8 µM
  relative viability: 0.714
NCI-H1915; first compound 2.53 µM
  relative viability: 0.666
NCI-H1915; first compound 8 µM
  relative viability: 0.782
SK-MES-1; first compound 0.08 µM
  relative viability: 0.859
SK-MES-1; first compound 0.253 µM
  relative viability: 0.766
SK-MES-1; first compound 0.8 µM
  relative viability: 0.702
SK-MES-1; first compound 2.53 µM
  relative viability: 0.815
SK-MES-1; first compound 8 µM
  relative viability: 0.596
UMC-11; first compound 0.08 µM
  relative viability: 1.2
UMC-11; first compound 0.253 µM
  relative viability: 1.03
UMC-11; first compound 0.8 µM
  relative viability: 0.976
UMC-11; first compound 2.53 µM
  relative viability: 1.11
UMC-11; first compound 8 µM
  relative viability: 1.18
NCI-H661; first compound 0.08 µM
  relative viability: 0.929
NCI-H661; first compound 0.253 µM
  relative viability: 0.879
NCI-H661; first compound 0.8 µM
  relative viability: 0.887
NCI-H661; first compound 2.53 µM
  relative viability: 0.878
NCI-H661; first compound 8 µM
  relative viability: 0.896
LK-2; first compound 0.08 µM
  relative viability: 0.18
LK-2; first compound 0.253 µM
  relative viability: 0.165
LK-2; first compound 2.53 µM
  relative viability: 0.18
LK-2; first compound 8 µM
  relative viability: 0.188
PC-14; first compound 0.253 µM
  relative viability: 0.181
PC-14; first compound 2.53 µM
  relative viability: 0.15
PC-14; first compound 8 µM
  relative viability: 0.111
NCI-H2228; first compound 0.08 µM
  relative viability: 0.116
NCI-H2228; first compound 0.253 µM
  relative viability: 0.149
NCI-H2228; first compound 0.8 µM
  relative viability: 0.152
NCI-H2228; first compound 2.53 µM
  relative viability: 0.18
NCI-H2228; first compound 8 µM
  relative viability: 0.122
H3255; first compound 0.253 µM
  relative viability: 0.926
H3255; first compound 0.8 µM
  relative viability: 0.684
H3255; first compound 2.53 µM
  relative viability: 0.883
H3255; first compound 8 µM
  relative viability: 0.799
A-427; first compound 0.08 µM
  relative viability: 0.703
A-427; first compound 0.253 µM
  relative viability: 0.793
A-427; first compound 0.8 µM
  relative viability: 0.936
A-427; first compound 2.53 µM
  relative viability: 0.857
A-427; first compound 8 µM
  relative viability: 0.768
ABC-1; first compound 0.08 µM
  relative viability: 0.75
ABC-1; first compound 0.253 µM
  relative viability: 0.519
ABC-1; first compound 0.8 µM
  relative viability: 0.367
ABC-1; first compound 2.53 µM
  relative viability: 0.675
ABC-1; first compound 8 µM
  relative viability: 0.433
PC-3 [JPC-3]; first compound 0.08 µM
  relative viability: 0.402
PC-3 [JPC-3]; first compound 0.253 µM
  relative viability: 0.714
PC-3 [JPC-3]; first compound 0.8 µM
  relative viability: 0.699
PC-3 [JPC-3]; first compound 2.53 µM
  relative viability: 0.723
PC-3 [JPC-3]; first compound 8 µM
  relative viability: 0.599
NCI-H1792; first compound 0.08 µM
  relative viability: 0.525
NCI-H1792; first compound 0.253 µM
  relative viability: 0.424
NCI-H1792; first compound 0.8 µM
  relative viability: 0.403
NCI-H1792; first compound 2.53 µM
  relative viability: 0.477
NCI-H1792; first compound 8 µM
  relative viability: 0.498
